Data on 25 compounds can be found in patent publication US10323022B2, “Pyrrolidinyl urea, pyrrolidinyl thiourea and pyrrolidinyl guanidine compounds as TrkA kinase inhibitors” (Array BioPharma Inc., priority 2011, dated 2019).

Molecules are shown by their SMILES.

TrkA, sequence (P04629 33-796): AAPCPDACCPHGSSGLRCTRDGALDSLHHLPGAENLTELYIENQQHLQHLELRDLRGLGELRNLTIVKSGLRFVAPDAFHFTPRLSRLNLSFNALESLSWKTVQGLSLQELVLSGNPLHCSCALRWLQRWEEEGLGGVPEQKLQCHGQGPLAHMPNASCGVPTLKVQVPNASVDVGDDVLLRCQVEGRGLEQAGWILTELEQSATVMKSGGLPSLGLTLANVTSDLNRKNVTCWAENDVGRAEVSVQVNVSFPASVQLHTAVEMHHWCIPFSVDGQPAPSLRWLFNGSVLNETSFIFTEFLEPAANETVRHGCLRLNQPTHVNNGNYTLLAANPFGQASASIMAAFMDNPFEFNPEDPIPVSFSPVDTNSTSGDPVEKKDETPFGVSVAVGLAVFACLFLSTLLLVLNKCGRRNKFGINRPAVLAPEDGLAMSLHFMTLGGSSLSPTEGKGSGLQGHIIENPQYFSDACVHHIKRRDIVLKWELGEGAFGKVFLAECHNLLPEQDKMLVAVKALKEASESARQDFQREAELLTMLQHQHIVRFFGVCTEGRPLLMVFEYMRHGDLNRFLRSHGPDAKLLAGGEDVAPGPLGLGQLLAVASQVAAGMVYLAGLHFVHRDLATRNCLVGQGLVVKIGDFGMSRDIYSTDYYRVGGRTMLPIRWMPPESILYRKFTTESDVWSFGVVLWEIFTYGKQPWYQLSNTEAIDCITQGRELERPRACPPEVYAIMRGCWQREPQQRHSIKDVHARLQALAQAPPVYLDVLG

In this experiment the target is TrkA (Homo sapiens (Human), UniProt P04629). The experiment is described as follows: TrkA Omnia Assay. Conditions: averaged IC50; 20 nM enzyme, 500 μM ATP, 10 μM peptide substrate. The format is biochemical. An outline of the steps:
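Recombinant TrkA (20 nM) preincubated 10 min at ambient temperature with compound, then Omnia Tyr Peptide #4 (10 μM) and ATP (500 μM) added in 25 mM MOPS pH 7.5, 5 mM MgCl2, 0.005% Triton X-100. Fluorescence (ex 360/em 485 nm) followed continuously for 70 min; IC50 from initial rates by 4- or 5-parameter logistic fit.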
One may read the IC50 as the concentration that gives 50% inhibition. A higher IC50 goes with lower potency. In turn, `COCCN1C[C@@H](NC(=O)Nc2c(C)c(-c3cnn(C)c3C)nn2-c2ccccc2)[C@H](c2ccc(F)c(F)c2)C1` [Example 507, 1-((3S,4R)-4-(3,4-difluorophenyl)-1-(2-methoxyethyl)pyrrolidin-3-yl)-3-(1′,4,5′-trimethyl-1-phenyl-1H,1′H-[3,4′-bipyrazol]-5-yl)urea] showed an IC50 of less than 100 nM.

On to `COCCN1C[C@@H](NC(=O)Nc2c(C)c(-c3cn(C)nc3C)nn2-c2ccccc2)[C@H](c2ccc(F)c(F)c2)C1` [Example 508, 1-((3S,4R)-4-(3,4-difluorophenyl)-1-(2-methoxyethyl)pyrrolidin-3-yl)-3-(1′,3′,4-trimethyl-1-phenyl-1H,1′H-[3,4′-bipyrazol]-5-yl)urea], for which the IC50 is less than 100 nM.

The compound `COCCN1C[C@@H](NC(=O)Nc2c(C)c(-c3cnn(C4CC4)c3)nn2-c2ccccc2)[C@H](c2ccc(F)c(F)c2)C1` [Example 509, 1-(1′-cyclopropyl-4-methyl-1-phenyl-1H,1′H-[3,4′-bipyrazol]-5-yl)-3-((3S,4R)-4-(3,4-difluorophenyl)-1-(2-methoxyethyl)pyrrolidin-3-yl)urea] had an IC50 of less than 100 nM.

In turn, `COCCN1C[C@@H](NC(=O)Nc2c(C)c(-c3cnc(C)s3)nn2-c2ccccc2)[C@H](c2ccc(F)c(F)c2)C1` [Example 510, 1-((3S,4R)-4-(3,4-difluorophenyl)-1-(2-methoxyethyl)pyrrolidin-3-yl)-3-(4-methyl-3-(2-methylthiazol-5-yl)-1-phenyl-1H-pyrazol-5-yl)urea] gave an IC50 of less than 100 nM.

Take `COCCN1C[C@@H](NC(=O)Nc2c(C)c(-c3cnc(C)nc3)nn2-c2ccccc2)[C@H](c2ccc(F)c(F)c2)C1` [Example 511, 1-((3S,4R)-4-(3,4-difluorophenyl)-1-(2-methoxyethyl)pyrrolidin-3-yl)-3-(4-methyl-3-(2-methylpyrimidin-5-yl)-1-phenyl-1H-pyrazol-5-yl)urea]: the IC50 is less than 100 nM.

The compound `COCCN1C[C@@H](NC(=O)Nc2c(C)c(-c3cnc(N)nc3)nn2-c2ccccc2)[C@H](c2ccc(F)c(F)c2)C1` [Example 512, 1-(3-(2-aminopyrimidin-5-yl)-4-methyl-1-phenyl-1H-pyrazol-5-yl)-3-((3S,4R)-4-(3,4-difluorophenyl)-1-(2-methoxyethyl)pyrrolidin-3-yl)urea] had an IC50 of less than 100 nM.

As for `COCCN1C[C@@H](NC(=O)Nc2c(C)c(-c3sc(C)nc3C)nn2-c2ccccc2)[C@H](c2ccc(F)c(F)c2)C1` [Example 513, 1-((3S,4R)-4-(3,4-difluorophenyl)-1-(2-methoxyethyl)pyrrolidin-3-yl)-3-(3-(2,4-dimethylthiazol-5-yl)-4-methyl-1-phenyl-1H-pyrazol-5-yl)urea], the IC50 was less than 100 nM.

Take `COCCN1C[C@@H](NC(=O)Nc2c(C)c(-c3cc(C)nc(C)c3)nn2-c2ccccc2)[C@H](c2ccc(F)c(F)c2)C1` [Example 514, 1-((3S,4R)-4-(3,4-difluorophenyl)-1-(2-methoxyethyl)pyrrolidin-3-yl)-3-(3-(2,6-dimethylpyridin-4-yl)-4-methyl-1-phenyl-1H-pyrazol-5-yl)urea]: the IC50 is less than 100 nM.

`COCCN1C[C@@H](NC(=O)Nc2c(C)c(-c3ccc(N)nc3)nn2-c2ccccc2)[C@H](c2ccc(F)c(F)c2)C1` [Example 515, 1-(3-(6-aminopyridin-3-yl)-4-methyl-1-phenyl-1H-pyrazol-5-yl)-3-((3S,4R)-4-(3,4-difluorophenyl)-1-(2-methoxyethyl)pyrrolidin-3-yl)urea] returned an IC50 of less than 100 nM.

On to `COCCN1C[C@@H](NC(=O)Nc2c(C)c(Br)nn2-c2ccccc2)[C@H](c2ccc(F)cc2)C1` [Example 516, 1-(3-bromo-4-methyl-1-phenyl-1H-pyrazol-5-yl)-3-((3S,4R)-4-(4-fluorophenyl)-1-(2-methoxyethyl)pyrrolidin-3-yl)urea], for which the IC50 was less than 100 nM.

In turn, `COCCN1C[C@@H](NC(=O)Nc2c(C)c(-c3ccc(=O)n(CC(F)(F)F)c3)nn2-c2ccccc2)[C@H](c2ccc(F)c(F)c2)C1` [Example 517, 1-((3S,4R)-4-(3,4-difluorophenyl)-1-(2-methoxyethyl)pyrrolidin-3-yl)-3-(4-methyl-3-(6-oxo-1-(2,2,2-trifluoroethyl)-1,6-dihydropyridin-3-yl)-1-phenyl-1H-pyrazol-5-yl)urea] had a half-maximal inhibitory concentration (IC50) of less than 100 nM.

Take `COCCN1C[C@@H](NC(=O)Nc2c(C)c(-c3cnn(C(C)C)c3)nn2-c2ccccc2)[C@H](c2ccc(F)cc2)C1` [Example 518, 1-((3S,4R)-4-(4-fluorophenyl)-1-(2-methoxyethyl)pyrrolidin-3-yl)-3-(1′-isopropyl-4-methyl-1-phenyl-1H, 1′H-[3,4′-bipyrazol]-5-yl)urea]: the IC50 is less than 100 nM.

As to `COCCN1C[C@@H](NC(=O)Nc2c(C)c(-c3ccc(=O)n(C)c3)nn2-c2ccccc2)[C@H](c2ccc(F)cc2)C1` [Example 519, 1-((3S,4R)-4-(4-fluorophenyl)-1-(2-methoxyethyl)pyrrolidin-3-yl)-3-(4-methyl-3-(1-methyl-6-oxo-1,6-dihydropyridin-3-yl)-1-phenyl-1H-pyrazol-5-yl)urea], the IC50 was less than 100 nM.

`Cc1c(Br)nn(-c2ccccc2)c1NC(=O)N[C@H]1CN(CC(F)(F)F)C[C@@H]1c1ccccc1` [Example 520, 1-(3-bromo-4-methyl-1-phenyl-1H-pyrazol-5-yl)-3-((3R,4S)-4-phenyl-1-(2,2,2-trifluoroethyl)pyrrolidin-3-yl)urea] registered an IC50 of less than 100 nM.

`Cc1c(-c2cnc(N)nc2)nn(-c2ccccc2)c1NC(=O)N[C@H]1CN(CC(F)(F)F)C[C@@H]1c1ccccc1` [Example 522, 1-(3-(2-aminopyrimidin-5-yl)-4-methyl-1-phenyl-1H-pyrazol-5-yl)-3-((3R,4S)-4-phenyl-1-(2,2,2-trifluoroethyl)pyrrolidin-3-yl)urea bis(2,2,2-trifluoroacetate)]: the IC50 is less than 100 nM.

For the compound `CCn1cc(-c2nn(-c3ccccc3)c(NC(=O)N[C@@H]3CN(CCOC)C[C@H]3c3ccc(F)c(F)c3)c2C)cn1` [Example 523, 1-((3S,4R)-4-(3,4-difluorophenyl)-1-(2-methoxyethyl)pyrrolidin-3-yl)-3-(1′-ethyl-4-methyl-1-phenyl-1H, 1′H-[3,4′-bipyrazol]-5-yl)urea], the IC50 was less than 100 nM.

`CCn1cc(-c2nn(-c3ccccc3)c(NC(=O)N[C@@H]3CN(CCOC)C[C@H]3c3ccc(F)cc3)c2C)cn1` [Example 524, 1-(1′-ethyl-4-methyl-1-phenyl-1H, 1′H-[3,4′-bipyrazol]-5-yl)-3-((3S,4R)-4-(4-fluorophenyl)-1-(2-methoxyethyl)pyrrolidin-3-yl)urea] returned an IC50 of less than 100 nM.

Consider `COCCN1C[C@@H](NC(=O)Nc2c(C)c(OS(=O)(=O)C(F)(F)F)nn2-c2ccccc2)[C@H](c2ccc(F)c(F)c2)C1` [Example 525, 5-(3-((3S,4R)-4-(3,4-difluorophenyl)-1-(2-methoxyethyl)pyrrolidin-3-yl)ureido)-4-methyl-1-phenyl-1H-pyrazol-3-yl trifluoromethanesulfonate], for which the IC50 was less than 100 nM.

As to `COCCN1C[C@@H](NC(=O)Nc2c(C)c(-c3cnc(OC)nc3)nn2-c2ccccc2)[C@H](c2ccc(F)c(F)c2)C1` [Example 526, 1-((3S,4R)-4-(3,4-difluorophenyvl)-1-(2-methoxyethyl)pyrrolidin-3-yl)-3-(3-(2-methoxypyrimidin-5-yl)-4-methyl-1-phenyl-1H-pyrazol-5-yl)urea], the IC50 was less than 100 nM.

For the compound `COCCN1C[C@@H](NC(=O)Nc2c(C)c(-c3cnc(N(C)C)nc3)nn2-c2ccccc2)[C@H](c2ccc(F)c(F)c2)C1` [Example 527, 1-((3S,4R)-4-(3,4-difluorophenyl)-1-(2-methoxyethyl)pyrrolidin-3-yl)-3-(3-(2-(dimethylamino)pyrimidin-5-yl)-4-methyl-l-phenyl-1H-pyrazol-5-yl)urea], the IC50 is less than 100 nM.

For the compound `COCCN1C[C@@H](NC(=O)Nc2c(C)c(-c3cnc(OC)nc3)nn2-c2ccccc2)[C@H](c2ccc(F)cc2)C1` [Example 528, 1-((3S,4R)-4-(4-fluorophenyl)-1-(2-methoxyethyl)pyrrolidin-3-yl)-3-(3-(2-methoxypyrimidin-5-yl)-4-methyl-1-phenyl-1H-pyrazol-5-yl)urea], the IC50 was less than 100 nM.

The compound `COCCN1C[C@@H](NC(=O)Nc2c(C)c(-c3cnc(N(C)C)nc3)nn2-c2ccccc2)[C@H](c2ccc(F)cc2)C1` [Example 529, 1-(3-(2-(dimethylamino)pyrimidin-5-yl)-4-methyl-1-phenyl-1H-pyrazol-5-yl)-3-((3S,4R)-4-(4-fluorophenyl)-1-(2-methoxyethyl)pyrrolidin-3-yl)urea] returned an IC50 of less than 100 nM.

The compound `CCn1cc(-c2nn(-c3ccccc3)c(NC(=O)N[C@@H]3CN(CCOC)C[C@H]3c3cccc(F)c3)c2C)cn1` [Example 530, 1-(1′-ethyl-4-methyl-1-phenyl-1H,1′H-[3,4′-bipyrazol]-5-yl)-3-((3S,4R)-4-(3-fluorophenyl)-1-(2-methoxyethyl)pyrrolidin-3-yl)urea] registered an IC50 of less than 100 nM.

`COCCN1C[C@@H](NC(=O)Nc2c(C)c(-c3ccn(C)c(=O)c3)nn2-c2ccccc2)[C@H](c2cccc(F)c2)C1` [Example 531, 1-((3S,4R)-4-(3-fluorophenyl)-1-(2-methoxyethyl)pyrrolidin-3-yl)-3-(4-methyl-3-(1-methyl-2-oxo-1,2-dihydropyridin-4-yl)-1-phenyl-1H-pyrazol-5-yl)urea] returned an IC50 of less than 100 nM.

Turning to `COCCN1C[C@@H](NC(=O)Nc2c(C)c(-c3ccn(C)c(=O)c3)nn2-c2ccccc2)[C@H](c2ccc(F)cc2)C1` [Example 532, 1-((3S,4R)-4-(4-fluorophenyl)-1-(2-methoxyethyl)pyrrolidin-3-yl)-3-(4-methyl-3-(1-methyl-2-oxo-1,2-dihydropyridin-4-yl)-1-phenyl-1H-pyrazol-5-yl)urea], the IC50 is less than 100 nM.
